Data as given in patent US20240327392A1, “HETEROCYCLOALKYL-SUBSTITUTED POLYHETEROAZOLE DERIVATIVES AS MEDICAMENTS FOR TREATING AND/OR PREVENTING RS VIRUS INFECTIONS” (ALBIUS SCIENCES ALPHA PRIVATE LIMITED, priority 2021, published 2024).

test system: human RS virus A2 strain; experiment: In vitro test for anti-RS virus proliferation inhibitory activity (quantitative RT-PCR of RS virus RNA copy number in infected Vero cells); assay type: cell-based; conditions: 72 h; Vero cells infected with human RS virus A2 strain, 3 days of incubation, RS virus N gene RNA copy number by quantitative RT-PCR; read-out: Anti-RS virus Activity
Description: A mixture of Vero cells (3.4×10^5 cells/mL) and human RS virus A2 strain (1.7×10^4 TCID50/mL) (EMEM medium supplemented with 10% FCS) was added to a 96-well plate at 50 μL/well, and the 10% FCS-supplemented EMEM medium adjusted to the desired final concentration of the compounds to be tested was added at 50 μL/well, followed by incubating the plate at 37° C. in the presence of 5% CO2 at 37° C. After 3 days of incubation, the supernatant was removed, the cells were washed with PBS(−), and the cell lysis buffer supplied with the SingleShot (registered trademark) Cell Lysis Kit (Bio-Rad) was added dropwise at 50 μL/well to lysis the cells thereby providing the cell lysate.
Human RS virus RNA copy number in the cell lysate was determined by quantitative RT-PCR using iTaq Universal SYBR Green One-Step Kit (Bio-Rad). Specifically, primers targeting human RS virus N gene (Rameix-Welti et al, Nat Commun5: 5104, 2014. doi: 10.1038/ncomms6104) was used to prepare the reaction solution according to the instructions provided with the kit, and a 96-well PikoReal Real-Time PCR System (TCR0096, Thermo Fisher Scientific) was used to detect PCR reaction and signal assay.
The copy number was calculated by the relative method using the comparative Ct method using compound-free virus-infected cells as controls.

Row | IC50 | SMILES
1 | 10 to 50 µM | CC(C)CS(=O)(=O)N1CCCC[C@H]1c1nc(CCCc2ccccc2)no1 [Compound 2A, 3-(3-phenylpropyl)-5-[(2S)-1-isobutylsulfonylpiperidin-2-yl]-1,2,4-oxadiazole]
2 | > 50 µM | CS(=O)(=O)N1CCC[C@H]1c1nc(CCCc2ccccc2)no1 [Compound 1C, 3-(3-phenylpropyl)-5-[(2S)-1-methanesulfonylpyrrolidin-2-yl]-1,2,4-oxadiazole]
3 | 10 to 50 µM | O=S(=O)(c1ccccc1)N1CCC[C@H]1c1nc(CCCc2ccccc2)no1 [Compound 1D, 3-(3-phenylpropyl)-5-[(2S)-1-benzenesulfonylpyrrolidin-2-yl]-1,2,4-oxadiazole]
4 | < 10 µM | O=S(=O)(C1CCCCC1)N1CCCC[C@H]1c1nc(CCCc2ccccc2)no1 [Compound 2B, 3-(3-phenylpropyl)-5-[(2S)-1-cyclohexylsulfonylpiperidin-2-yl]-1,2,4-oxadiazole]

same assay, conditions: 72 h; Vero cells infected with human RS virus A2 strain, 3 days of incubation, RS virus RNA copy number by quantitative RT-PCR; read-out: Anti-RS virus Activity

Row | IC50 | SMILES
5 | 10 to 50 µM | CC(C)CCN1CCCC[C@H]1c1nc(CCCc2ccccc2)no1 [Compound 2T, (S)-5-(1-isopentylpiperidin-2-yl)-3-(3-phenylpropyl)-1,2,4-oxadiazole]
6 | < 10 µM | CC(C)CS(=O)(=O)N1CCCC[C@H]1c1nc(CCc2ccncc2)no1 [Compound 12A, (S)-5-(1-(Isobutylsulfonyl)piperidin-2-yl)-3-(2-(pyridin-4-yl)ethyl)-1,2,4-oxadiazole]
7 | 10 to 50 µM | O=C(NCc1noc([C@@H]2C[C@@H](c3ccccc3)CN2S(=O)(=O)c2ccc(F)cc2)n1)c1cnc2ccccc2c1 [Compound 46AJ, N-((5-((2S,4S)-1-((4-fluorophenyl)sulfonyl)-4-phenylpyrrolidin-2-yl)-1,2,4-oxadiazol-3-yl)methyl)quinoline-3-carboxamide]
8 | < 10 µM | CN(C)c1cccc2c(S(=O)(=O)N3CC4(CC4)C[C@H]3c3nc(CCCc4ccccc4)no3)cccc12 [Compound 5AL, (S)-N,N-dimethyll-5-((6-(3-(3-phenylpropyl)-1,2,4-oxadiazole-5-yl)-5-azaspiro[2.4]heptan-5-yl)sulfonyl)naphthalen-1-amine]
9 | > 50 µM | CC(C)CS(=O)(=O)N1CCCC[C@H]1c1nc(CCc2ccccc2)no1 [Compound 10A, 3-(2-phenylethyl)-5-[(2S)-1-isobutylsulfonylpiperidin-2-yl]-1,2,4-oxadiazole]
10 | 10 to 50 µM | CC(C)(C)OC(=O)N1C[C@H]2CC[C@]1(c1nc(CCc3ccncc3)no1)CC2 [Compound 13-1, Tert-butyl (1s,4s)-1-(3-(2-(pyridin-4-yl)ethyl)-1,2,4-oxadiazol-5-yl)-2-azabicyclo[2.2.2]octane-2-carboxylate]
11 | > 50 µM | O=C(NCc1noc([C@@H]2CCCCN2S(=O)(=O)C2CCCCC2)n1)c1ccc2c(c1)OCO2 [Compound 21B, (S)—N-((5-(1-(cyclohexylsulfonyl)piperidin-2-yl)-1,2,4-oxadiazol-3-yl)methyl)benzo[d][1,3]dioxol-5-carboxamide]
12 | < 10 µM | O=S(=O)(c1ccccc1)N1CC(c2ccccc2)C[C@H]1c1nc(CCCc2ccccc2)no1 (stereo in doubt) [Compound 7D, 3-(3-phenylpropyl)-5-[(2S,4S)-1-benzenesulfonyl-4-phenylpyrrolidin-2-yl]-1,2,4-oxadiazole]
13 | < 10 µM | O=S(=O)(C1CCCCC1)N1CC(c2ccccc2)C[C@H]1c1nc(CCCc2ccccc2)no1 (stereo in doubt) [Compound 7B, 3-(3-Phenylpropyl)-5-[(2S,4S)-1-cyclohexylsulfonyl-4-phenylpyrrolidin-2-yl]-1,2,4-oxadiazole]
14 | < 10 µM | CC(C)(C)OC(=O)N1CCC(CS(=O)(=O)N2C[C@H](c3ccccc3)C[C@H]2c2nc(CCCc3ccccc3)no2)CC1 [Compound 7AN, tert-buthyl 4-((((2S,4S)-4-phenyl2-(3-(3-phenylpropyl)-1,2,4-oxadiazole-5-yl)pyrrolidin-1-yl)sulfonyl)methyl)piperidin-1-carboxylate]
15 | 10 to 50 µM | c1ccc(CCCc2noc([C@@H]3CCCCN3CCc3ccccc3)n2)cc1 [Compound 2AB, (S)-5-(1-phenethylpiperidin-2-yl)-3-(3-phenylpropyl)-1,2,4-oxadiazole]
16 | < 10 µM | O=C(N1CC2(CC2)C[C@H]1c1nc(CCCc2ccccc2)no1)C(F)(F)F [5D′, 3-(3-Phenylpropyl)-5-{(6S)-5-trifluoroacetyl-5-azaspiro[2.4]hept-6-yl}-1,2,4-oxadiazole]
17 | < 10 µM | CN(C)c1cccc2c(S(=O)(=O)N3C[C@H](c4ccccc4)C[C@H]3c3nc(CCCc4ccccc4)no3)cccc12 [Compound 7AL, N,N-dimethyl-5-(((2S,4S)-4-phenyl2-(3-(3-phenylpropyl)-1,2,4-oxadiazole-5-yl)pyrrolidin-1-yl)sulfonyl)naphthalen-1-amine]
18 | 10 to 50 µM | CC(C)(C)OC(=O)N1CCCC[C@H]1c1nc(CC(=O)Nc2ccccc2)no1 [Compound 23-1, Tert-butyl (S)-2-(3-(2-oxo-2-(phenylamino)ethyl)-1,2,4-oxadiazol-5-yl)piperidine-1-carboxylate]
19 | < 10 µM | CC(C)(C)OC(=O)N1C[C@H](c2ccccc2)C[C@H]1c1nc(Cc2ccccc2)no1 [Compound C1-7-1, Tert-butyl (2S,4S)-2-(3-benzyl-1,2,4-oxadiazol-5-yl)-4-phenylpyrrolidine-1-carboxylate]
20 | < 10 µM | CC(C)CS(=O)(=O)N1CC(c2ccccc2)C[C@H]1c1nc(CCCc2ccccc2)no1 (stereo in doubt) [Compound 7A, 3-(3-phenylpropyl)-5-[(2S,4S)-1-isobutylsulfonyl-4-phenylpyrrolidin-2-yl]-1,2,4-oxadiazole]
21 | > 50 µM | CC(C)(C)OC(=O)N1CCC(S(=O)(=O)N2CC(CC3CCC3)CC2c2nc(CCCc3ccccc3)no2)CC1 (stereo not drawn) [Compound 6AO]
22 | < 10 µM | CS(=O)(=O)N1CC(c2ccccc2)C[C@H]1c1nc(CCCc2ccccc2)no1 (stereo in doubt) [Compound 7C, 3-(3-phenylpropyl)-5-[(2S,4S)-1-methanesulfonyl-4-phenylpyrrolidin-2-yl]-1,2,4-oxadiazole]
23 | 10 to 50 µM | CC(C)(C)OC(=O)N1C[C@H]2CC[C@]1(c1nc(CCc3ccccc3)no1)CC2 [Compound 15-1, Tert-butyl (1s,4s)-1-(3-phenethyl-1,2,4-oxadiazol-5-yl)-2-azabicyclo[2.2.2]octane-2-carboxylate]
24 | < 10 µM | COc1ccc(CCCc2noc([C@@H]3CCCCN3C(=O)OC(C)(C)C)n2)cc1OC [Compound 22-1, Tert-butyl (S)-2-(3-(3-(3,4-dimethoxyphenyl)propyl)-1,2,4-oxadiazol-5-yl)piperidine-1-carboxylate]
25 | 10 to 50 µM | CC(C)(C)OC(=O)N1CCC(CS(=O)(=O)N2CC(CC3CCC3)CC2c2nc(CCCc3ccccc3)no2)CC1 (stereo not drawn) [Compound 6AN, tert-buthyl 4-(((4-(cyclobuthylmethyl)-2-(3-(3-phenylpropyl)-1,2,4-oxadiazole-5-yl)pyrrolidin-1-yl)sulfonyl)methyl)piperidin-1-carboxylate]
26 | < 10 µM | CC(C)(C)OC(=O)N1C[C@H](c2ccccc2)C[C@H]1c1nnc(CCCc2ccccc2)[nH]1 [Compound 19-1, Tert-butyl (2S,4S)-4-phenyl-2-(5-(3-phenylpropyl)-4H-1,2,4-triazol-3-yl)pyrrolidine-1-carboxylate]
27 | 10 to 50 µM | O=S(=O)(Cc1ccccc1)N1CC2(CC2)C[C@H]1c1nc(CCCc2ccccc2)no1 [Compound 5E, 3-(3-Phenylpropyl)-5-{(6S)-5-benzylsulfonyl-5-azaspiro[2.4]hept-6-yl}-1,2,4-oxadiazole]
28 | < 10 µM | CN(C)c1ccc(S(=O)(=O)N2CC(CC3CCC3)CC2c2nc(CCCc3ccccc3)no2)cc1 (stereo not drawn) [Compound 6AK, 4-((4-(cyclobuthylmethyl)-2-(3-(3-phenylpropyl)-1,2,4-oxadiazole-5-yl)pyrrolidin-1-yl)sulfonyl)-N,N-dimethylaniline]
29 | 10 to 50 µM | NC(=O)[C@H]1C[C@@H](c2nc(CCCc3ccccc3)no2)N(S(=O)(=O)c2ccc(F)cc2)C1 [Compound 42AJ, (3S,5S)-1-((4-fluorophenyl)sulfonyl)-5-(3-(3-phenylpropyl)-1,2,4-oxadiazol-5-yl)pyrrolidine-3-carboxamide]
30 | 10 to 50 µM | CC(=O)N1CCC[C@H]1c1nc(CCCc2ccccc2)no1 [Compound 1R]
31 | > 50 µM | CC(C)NC(=O)N1CCCC[C@H]1c1nc(CCc2ccccc2)no1 [Compound 10G, (S)—N-isopropyl-2-(3-phenethyl-1,2,4-oxadiazol-5-yl) piperidine-1-carboxamide]

Row | SMILES | IC50
32 | CC(C)(C)OC(=O)N1CCC[C@H]1c1nc(CCc2ccccc2)no1 [Compound 9-1, 3-(2-phenylethyl)-5-[(2S)-1-tert-butoxycarbonylpyrrolidin-2-yl]-1,2,4-oxadiazole] | > 50 µM
33 | CC(C)(C)OC(=O)N1C[C@H](F)C[C@H]1c1nc(CCCc2ccccc2)no1 [Compound 8-1, 3-(3-phenylpropyl)-5-[(2S,4R)-1-tert-butoxycarbonyl-4-fluoropyrrolidin-2-yl]-1,2,4-oxadiazole] | < 10 µM
